Data from US12559725B2, “Formulation comprising extracellular vesicles, method for producing the same, and uses thereof” (MacKay Memorial Hospital, priority 2018, dated 2026).

What was measured:
[1] = test system: U937 myeloid cells; assay: Reactive oxygen species in PMA-stimulated U937 myeloid cells (DCFH flow cytometry); assay type: cell-based; conditions: EVs 0.15 mg/ml, curcumin 0.8 mM, 30 minutes, vs medium only
Description: The U937 myeloid cells were seeded in 24-well plate at a density of 8×10^4 cells/well (in 0.4 ml) followed by the stimulation of 100 nM PMA (phorbol myristate acetate) at 37° C., 5% CO2 incubator for 48 hours. The cells were washed with PBS twice before adding medium with and without ucMSC-naive-EVs (0.15 mg/ml), curcumin (Cur, 0.8 mM) or EV-curcumin (Cur/EVs, 0.8 mM) for 30 minutes. The reactions were incubated with DCFH ([…]) at 1 uM for 20 minutes before flow cytometric analysis of H2O2-mediated fluorescence at 480 nm emission.

[2] = test system: cisplatin-induced hearing loss; assay: Cisplatin-induced hearing loss mouse model (ABR, organ of Corti explants); assay type: in vivo, C57BL/6 mice; conditions: intraperitoneal 0.1 ml day 1 to day 5; ABR threshold at 12 kHz, 10 days post-treatment
Description: In a mouse model of hearing loss, the inner cell damage was induced by administering to C57BL/6 mice 4 mg/kg cisplatin daily for 5 consecutive days, in which the mice were intraperitoneally treated with 0.1 ml PBS (serving as the negative control group), 0.1 ml ucMSC-naive-EVs or 0.1 ml EV-curcumin (about 120 ug protein of EVs, 2.2×10^11 to 2.8×10^11 vesicles) from day 1 to day 5. The protecting effect of ucMSC-naive-EVs and EV-curcumin was assessed by analyzing the cell number and function of the inner ear cells. To assess the protecting effect of the present EV formulation on hearing loss and inner ear cell death, auditory brain response (ABR) threshold at 12 kHz and immunofluorescence images of organ of Corti explants were measured 10 days post-treatment. To obtain the ucMSC-EVs preparations with and without curcumin incorporation enough for the animal study requiring a larger amount of EVs for daily intraperitoneal injection, the ucMSC-EVs in paired formulations with and without curcumin incorporation were prepared and stored at −80° C. for at least 3 months. To make sure homogeneous application of ucMSC-EV to each mouse, different batches of EVs were thawed and mixed for the experiment right before the animal study. One-way ANOVA with Duncan post hoc test was performed when compared with the control or cisplatin group.

[3] = test system: mouse model of anti-aging; assay: D-galactose aging mouse model, Morris water maze; assay type: in vivo, BALB/c mice; conditions: D-galactose 6 weeks, then intraperitoneal three times a week for 3 weeks
Description: In a mouse model of anti-aging, BALB/c mice were subcutaneously treated with 100 mg/kg D-galactose every day for 6 consecutive weeks. Then, the mice were intraperitoneally administered with 0.1 ml PBS (serving as the negative control group), 0.1 ml curcumin (1 μM), 0.1 ml ucMSC-naive-EVs, 0.1 ml EV-curcumin (about 120 ug protein of EVs, 2.2×10^11 vesicles), or 5 mg/kg β-lapachone three times a week for 3 weeks after 6 weeks of aging induction and the pre-test of cognition assessment. The anti-aging effect of ucMSC-naive-EVs and EV-curcumin was then assessed by the cognition ability in Morris water maze model.

Structure (SMILES) | production of reactive oxygen species (H2O2-mediated fluorescence) [1] | cisplatin-induced hearing loss (ABR) [2] | time to reach the safety island (escape latency), Morris water maze [3]
COc1cc(/C=C/C(=O)CC(=O)/C=C/c2ccc(O)c(OC)c2)ccc1O [curcumin] | significantly decreased the production of reactive oxygen species | not curcumin alone | obviously reduced the time to reach the safety island
CC1(C)CCC2=C(O1)c1ccccc1C(=O)C2=O [β-lapachone] | – | – | obviously reduced the time to reach the safety island
